A short description of data set [1]: Thermal analysis (TG/DTA and TGA 7). The class given is physicochemical. The following applies: for Td: 5 °C/min; for Temp. range of 1st cleavage: lower limit taken at 0.5 wt-%; for Temp. range of dehydration / onset T of dehydration / Td (decomposition onset): heating rate 5 °C/min; for Td (decomposition onset): average from both instruments. How it is done:
Thermal decomposition paths with evaluation of crystal water content were obtained parallel with two instruments; Perkin Elmer STA 6000 thermogravimetric TG/DTA and Perkin Elmer TGA 7 analyzers (Perkin Elmer, Massachusetts, USA). Measurements were carried out in an open platinum crucible (the higher 5 mm crucible was used in TG/DTA and a shallower 2 mm crucible in TGA 7) under air atmosphere (flow rate of 45 mL/min) with a heating rate of 5 °C/min over the temperature range of 25−700 °C. The temperature calibration of STA 6000 was made using melting points of indium (156.60 °C) and zinc (419.5 °C) standards. For TGA 7 magnetic Curie-point calibration technique (Alumel, Ni, Perkalloy, Fe) was used. The weight balance of both instruments was calibrated by measuring a standard weight of 50 mg at room temperature. The sample weights used in the measurements were about 4–8 mg, and for each bisphosphonate, it was attempted to keep the same on both instruments. The melting/dehydration/decomposition behavior of the compounds was also visually monitored using a Stuart Scientific SMP3 melting point apparatus.

Data set [2] in a line: Aqueous solubility of saturated solution at 21 °C (phosphorus determination by molybdenum blue spectrophotometry). Conditions: for solubility at 30 min: Milli-Q water, unbuffered, thermodynamic from solid; for solubility at 30 min / pH of saturated solution: 21 °C; for pH of saturated solution: saturated aqueous solution, agitation time 30 min.
Protocol: (§1) A Jasco V-530 UV/Vis spectrophotometer was used for phosphorus determination at 880 nm wavelength. Filtered liquid samples were diluted to the appropriate volume with Milli-Q water and were digested with the persulphate oxidation technique in acidic medium at elevated temperature to convert aminobisphosponates to orthophosphate. In an acidic medium, ammonium molybdate and antimony potassium tartrate react with orthophosphate to form a phosphomolybdic acid that is reduced to intensively colored molybdenum blue by ascorbic acid [30].
(§2) The mixture containing an excess of the studied compound was first agitated for predetermined time with magnetic stirrer and before taking the sample mixture was allowed to stand for 24 h without stirring. The sample (about 5 mL) was taken from liquid above the solids, pH was measured and the sample was filtered through 0.2 µm membrane filter to remove any possible insoluble particles. The phosphorus concentration in the filtered sample solution was determined by using the spectrophotometric method described above.
A short description of data set [3]: Effect of pH on aqueous solubility. The following applies: for solubility at 30 min: water, pH adjusted with NaOH or HCl, 21 °C, thermodynamic from solid; for pH of solubility minimum: pH range 0.5 to 11.0.
Protocol: as §1, §2

Converted amounts (≈) assume the structure as drawn.

By solubility is commonly meant the dissolved amount per volume that the medium holds. Take `NCCCCCCCCC(O)(P(=O)(O)O)P(=O)(O)O` [Compound 6, (9-Amino-1-hydroxynonylidene)bisphosphonic acid]: the “Onset temperature of first cleavage” value in data set [1] (TG/DTA, higher crucible) worked out at 77 °C; in data set [1] (TGA 7, shallow crucible), 84 °C. Further, the Td in data set [1] (TG/DTA, higher crucible, air) worked out at 190 °C; in data set [1] (TGA 7, shallow crucible, air), 191 °C. In addition, the “Temp. range of 1st cleavage” value in data set [1] (TG/DTA, higher crucible) is 33–175 °C; in data set [1] (TGA 7, shallow crucible), 33–173 °C. Moreover, the “Temp. range of dehydration” value in data set [1] (air) was 33–175 °C. In data set [1] (air), the “onset T of dehydration” value was found to be 81 °C. For the same compound, in data set [1] (air), the “Td (decomposition onset)” value worked out at 191 °C. Also, the “temperature at which dehydration is initiated” value in data set [1] (thermogravimetry, air) was ~ 90 °C. The solubility at 30 min was determined as 2070 µg/mL (≈ 6470 µM) in data set [2] (water); 2100 µg/mL (≈ 6580 µM) in data set [3] (pH 0, aqueous buffer); 1150 µg/mL (≈ 3600 µM) in data set [3] (pH 1, aqueous buffer); 860 µg/mL (≈ 2690 µM) in data set [3] (pH 2, aqueous buffer); 1170 µg/mL (≈ 3670 µM) in data set [3] (pH 3, aqueous buffer); 1080 µg/mL (≈ 3380 µM) in data set [3] (pH 4, aqueous buffer). The solubility at 30 min is 1110 µg/mL (≈ 3480 µM) in data set [3] (pH 5, aqueous buffer); 1230 µg/mL (≈ 3850 µM) in data set [3] (pH 6, aqueous buffer); 1190 µg/mL (≈ 3730 µM) in data set [3] (pH 7, aqueous buffer); 1230 µg/mL (≈ 3850 µM) in data set [3] (pH 8, aqueous buffer); 1190 µg/mL (≈ 3730 µM) in data set [3] (pH 9, aqueous buffer); 1200 µg/mL (≈ 3760 µM) in data set [3] (pH 10, aqueous buffer). In addition, in data set [3] (pH 11, aqueous buffer), the solubility at 30 min turned out to be 1270 µg/mL (≈ 3980 µM). Besides, the “pH of saturated solution” value in data set [2] came out at 2.51.
Regarding `NCCCCCCCCCC(O)(P(=O)(O)O)P(=O)(O)O` [Compound 7, (10-Amino-1-hydroxydecylidene)bisphosphonic acid], in data set [1] (TG/DTA, higher crucible), the “Onset temperature of first cleavage” value is 185 °C and the “Temp. range of 1st cleavage” value is 175–211 °C. Moreover, in data set [1] (TG/DTA, higher crucible, air), the Td was 185 °C. In data set [1] (TGA 7, shallow crucible), the “Onset temperature of first cleavage” value is 189 °C and the “Temp. range of 1st cleavage” value was 161–227 °C. The compound further came in with a Td in data set [1] (TGA 7, shallow crucible, air) of 189 °C. For the same compound, in data set [1] (air), the “Td (decomposition onset)” value came out at 187 °C. Besides, the “temperature of first decomposition step (cleavage of amino group / degradation)” value in data set [1] (thermogravimetry, air) was “about 200 °C”. For the same compound, in data set [2] (water), the solubility at 30 min amounted to 217 µg/mL (≈ 651 µM) and the “water solubility (in words)” value is “hundreds of milligrams”. The “pH of saturated solution” value in data set [2] came to 3.28.
Regarding `NCCCCCCCCCCC(O)(P(=O)(O)O)P(=O)(O)O` [Compound 8, (11-Amino-1-hydroxyundecylidene)bisphosphonic acid], the “Onset temperature of first cleavage” value in data set [1] (TG/DTA, higher crucible) is 73 °C; in data set [1] (TGA 7, shallow crucible), 70 °C. For the same compound, the Td in data set [1] (TG/DTA, higher crucible, air) is 199 °C; in data set [1] (TGA 7, shallow crucible, air) it was 204 °C. In addition, the “Temp. range of 1st cleavage” value is 50–146 °C in data set [1] (TG/DTA, higher crucible) and 39–149 °C in data set [1] (TGA 7, shallow crucible). Also, in data set [1] (air), the “Temp. range of dehydration” value is 40–148 °C. For the same compound, the “onset T of dehydration” value in data set [1] (air) was 72 °C. Further, the “Td (decomposition onset)” value in data set [1] (air) came out at 202 °C. The “temperature of first decomposition step (cleavage of amino group / degradation)” value in data set [1] (thermogravimetry, air) is 200 °C. For the same compound, the solubility at 30 min in data set [2] (water) was determined as 58 µg/mL (≈ 167 µM); in data set [3] (pH 0, aqueous buffer), 180 µg/mL (≈ 518 µM); in data set [3] (pH 1, aqueous buffer) it was 80 µg/mL (≈ 230 µM); in data set [3] (pH 2, aqueous buffer) it was 50 µg/mL (≈ 144 µM); in data set [3] (pH 3, aqueous buffer), 80 µg/mL (≈ 230 µM); in data set [3] (pH 4, aqueous buffer), 180 µg/mL (≈ 518 µM). The solubility at 30 min in data set [3] (pH 5, aqueous buffer) came out at 230 µg/mL (≈ 662 µM); in data set [3] (pH 6, aqueous buffer), 270 µg/mL (≈ 777 µM); in data set [3] (pH 7, aqueous buffer), 290 µg/mL (≈ 835 µM); in data set [3] (pH 8, aqueous buffer) it was 250 µg/mL (≈ 720 µM); in data set [3] (pH 9, aqueous buffer), 290 µg/mL (≈ 835 µM); in data set [3] (pH 10, aqueous buffer) it was 400 µg/mL (≈ 1150 µM). Moreover, the solubility at 30 min in data set [3] (pH 11, aqueous buffer) worked out at 370 µg/mL (≈ 1070 µM). Also, the “pH of saturated solution” value in data set [2] is 4.71. Moreover, in data set [3], the “pH of solubility minimum” value is about 2.
On to `NCCCCCCCCCCCC(O)(P(=O)(O)O)P(=O)(O)O` [Compound 9, (12-Amino-1-hydroxydodecylidene)bisphosphonic acid], for which the “Onset temperature of first cleavage” value worked out at 185 °C in data set [1] (TG/DTA, higher crucible) and 191 °C in data set [1] (TGA 7, shallow crucible). For the same compound, the Td in data set [1] (TG/DTA, higher crucible, air) is 185 °C; in data set [1] (TGA 7, shallow crucible, air), 191 °C. The “Temp. range of 1st cleavage” value is 163–232 °C in data set [1] (TG/DTA, higher crucible) and 155–221 °C in data set [1] (TGA 7, shallow crucible). For the same compound, in data set [1] (air), the “Td (decomposition onset)” value was determined as 188 °C. In addition, the “temperature of first decomposition step (cleavage of amino group / degradation)” value in data set [1] (thermogravimetry, air) was “about 200 °C”. The solubility at 30 min in data set [2] (water) turned out to be 30 µg/mL (≈ 83 µM); in data set [3] (pH 0, aqueous buffer), 130 µg/mL (≈ 360 µM); in data set [3] (pH 1, aqueous buffer), 80 µg/mL (≈ 221 µM); in data set [3] (pH 2, aqueous buffer), 70 µg/mL (≈ 194 µM); in data set [3] (pH 3, aqueous buffer), 80 µg/mL (≈ 221 µM); in data set [3] (pH 4, aqueous buffer) it was 140 µg/mL (≈ 387 µM). The solubility at 30 min amounted to 200 µg/mL (≈ 554 µM) in data set [3] (pH 5, aqueous buffer); 210 µg/mL (≈ 581 µM) in data set [3] (pH 6, aqueous buffer); 200 µg/mL (≈ 554 µM) in data set [3] (pH 7, aqueous buffer); 240 µg/mL (≈ 664 µM) in data set [3] (pH 8, aqueous buffer); 250 µg/mL (≈ 692 µM) in data set [3] (pH 9, aqueous buffer); 400 µg/mL (≈ 1110 µM) in data set [3] (pH 10, aqueous buffer). The solubility at 30 min in data set [3] (pH 11, aqueous buffer) was determined as 470 µg/mL (≈ 1300 µM). Also, the “pH of saturated solution” value in data set [2] came out at 4.05. For the same compound, the “pH of solubility minimum” value in data set [3] is on record as about 2.
In the case of `NCCCCCCCCCCCCCCCC(O)(P(=O)(O)O)P(=O)(O)O` [Compound 10, (16-Amino-1-hydroxyhexadecylidene)bisphosphonic acid], the “Onset temperature of first cleavage” value turned out to be 178 °C in data set [1] (TG/DTA, higher crucible) and 181 °C in data set [1] (TGA 7, shallow crucible). The Td in data set [1] (TG/DTA, higher crucible, air) was 178 °C; in data set [1] (TGA 7, shallow crucible, air), 181 °C. The “Temp. range of 1st cleavage” value was 150–248 °C in data set [1] (TG/DTA, higher crucible) and 146–245 °C in data set [1] (TGA 7, shallow crucible). In data set [1] (air), the “Td (decomposition onset)” value worked out at 180 °C. Also, the “temperature of first decomposition step (cleavage of amino group / degradation)” value in data set [1] (thermogravimetry, air) was “about 200 °C”. Besides, in data set [2] (water), the concentration in solution (solubility at 30 min) came to 39 µg/mL (≈ 93.4 µM). Further, the “pH of saturated solution” value in data set [2] is 7.79.

These data come from PMC6268373, “Systematic Study of the Physicochemical Properties of a Homologous Series of Aminobisphosphonates” (Molecules, 2012).
